Laboratory results taken from patent publication US20100255580A1, “Differentiation of Human Embryonic Stem Cells” (LIFESCCAN, INC., priority 2007, published 2010).

Test system: H9 embryonic stem cells
Type: cell-based, human
Procedure: Controls for each group included cells plated on […]-coated dishes and cultured in MEF-conditioned medium or cells plated on MEFs and cultured in ES medium. All groups contained three biological replicates and each biological replicate was repeated on two separate gene chips.
Sample preparation, hybridization, and image analysis were performed according to the Affymetrix Human Genome U133 Plus 2.0 Array. Following normalization and a log transformation, data analysis was performed using OmniViz® software (MA) and […] (VizXLabs, WA). Significant differences in gene expression between the samples were evaluated using analysis of variance and an F-test with adjusted P-value (Benjamini and
Hochberg correction) of ≦b 0.05. Only genes with a present call in at least one group were included in the analysis.

[1] = DE treatment in low serum, on MEFS

Substance: Activin A: a member of the TGFβ superfamily; R&D Systems; Group 2 = Activin A (100 ng/ml)
- mean normalized intensity (log format), gene: Homo sapiens methyl-CpG binding protein MBD2 (MBD2) mRNA, complete cds. [1]: −1.702
- mean normalized intensity (log format), gene: Homo sapiens tachykinin, precursor 1 (TAC1), transcript variant beta, mRNA. [1]: 1.483
- mean normalized intensity (log format), gene: Homo sapiens testis expressed sequence 14 (TEX14), mRNA. [1]: −1.3824
- mean normalized intensity (log format), gene: Homo sapiens, Similar to LIM homeobox protein 8, clone IMAGE: 4839343, mRNA. [1]: −1.11
- mean normalized intensity (log format), gene: Homo sapiens, Similar to cadherin 6, type 2, K-cadherin (fetal kidney), clone MGC: 1470, mRNA, complete cds. [1]: 2.134
- mean normalized intensity (log format), gene: Homo sapiens, Similar to hypothetical protein FLJ10058, clone MGC: 34305 IMAGE: 5167647, mRNA, complete cds. [1]: 0.2156
- mean normalized intensity (log format), gene: Homo sapiens, Similar to hypothetical protein FLJ32001, clone MGC: 39559 IMAGE: 4828136, mRNA, complete cds. [1]: 1.269
- mean normalized intensity (log format), gene: Homo sapiens, clone IMAGE: 4067166, mRNA [1]: 0.277
- mean normalized intensity (log format), gene: Homo sapiens, clone IMAGE: 4828836, mRNA. [1]: −1.484
- mean normalized intensity (log format), gene: Homo sapiens, serine (or cysteine) proteinase inhibitor, clade B (ovalbumin), member 3, clone MGC: 12244, mRNA, complete cds. [1]: −1.566
- mean normalized intensity (log format), gene: Human mRNA upregulated during camptothecin-induced apoptosis of U937 cells. [1]: −0.1892
- mean normalized intensity (log format), gene: Human platelet-derived growth factor alpha-receptor (PDGFRA) mRNA, exons 13-16 [1]: 2.905
- mean normalized intensity (log format), gene: KIAA1151 protein [1]: 1.009
- mean normalized intensity (log format), gene: caldesmon 1 [1]: 5.634
- mean normalized intensity (log format), gene: nuclear receptor subfamily 1, group I, member 3 [1]: −0.1968
- mean normalized intensity (log format), gene: paternally expressed 3 (r2033) [1]: −0.0118
- mean normalized intensity (log format), gene: paternally expressed 3 (r2093) [1]: −3.492
- log intensity, AD036 mRNA (low serum, on MATRIGEL): −0.5033
- log intensity, ADP-ribosylation factor 4-like (ARF4L) (low serum, on MATRIGEL): 1.635
- log intensity, BACE mRNA for beta-site APP cleaving enzyme I-476 (low serum, on MATRIGEL): 0.4855
- log intensity, BTB (POZ) domain containing 2 (BTBD2) (low serum, on MATRIGEL): 1.101
- log intensity, CXCR4 gene encoding receptor CXCR4 (low serum, on MATRIGEL): 3.111
- log intensity, Cluster Incl. AB002344: Human mRNA for KIAA0346 gene (r901) (low serum, on MATRIGEL): 2.157
- log intensity, Cluster Incl. AB002344: Human mRNA for KIAA0346 gene (r941) (low serum, on MATRIGEL): 1.896
- log intensity, Cluster Incl. L37033: Human FK-506 binding protein homologue (FKBP38) (low serum, on MATRIGEL): 0.6156
- log intensity, Cluster Incl. N80935: zb07g06.s1 Homo sapiens cDNA (low serum, on MATRIGEL): 2.124
- log intensity, ESTs (r403) (low serum, on MATRIGEL): 0.7843
- log intensity, ESTs (r404) (low serum, on MATRIGEL): −1.263
- log intensity, ESTs (r405) (low serum, on MATRIGEL): −1.717
- log intensity, ESTs (r442) (low serum, on MATRIGEL): 2.774
- log intensity, ESTs (r453) (low serum, on MATRIGEL): −1.637
- log intensity, ESTs (r473) (low serum, on MATRIGEL): −0.04834
- log intensity, ESTs (r491) (low serum, on MATRIGEL): −1.344
- log intensity, ESTs (r522) (low serum, on MATRIGEL): −0.8015
- log intensity, ESTs (r523) (low serum, on MATRIGEL): −2.576
- log intensity, ESTs (r524) (low serum, on MATRIGEL): 0.4996
- log intensity, ESTs (r556) (low serum, on MATRIGEL): −0.1206
- log intensity, ESTs (r567) (low serum, on MATRIGEL): −2.015
- log intensity, ESTs (r627) (low serum, on MATRIGEL): 2.542
- log intensity, ESTs (r741) (low serum, on MATRIGEL): −0.004009
- log intensity, ESTs (r745) (low serum, on MATRIGEL): 1.386
- log intensity, ESTs (r766) (low serum, on MATRIGEL): 1.047
- log intensity, ESTs (r767) (low serum, on MATRIGEL): −1.485
- log intensity, ESTs (r891) (low serum, on MATRIGEL): −2.079
- log intensity, ESTs (r916) (low serum, on MATRIGEL): −0.1464
- log intensity, ESTs (r938) (low serum, on MATRIGEL): −1.246
- log intensity, ESTs (r980) (low serum, on MATRIGEL): −0.1842
- log intensity, ESTs (r1021) (low serum, on MATRIGEL): −0.4037
- log intensity, ESTs (r1022) (low serum, on MATRIGEL): 2.144
- log intensity, ESTs (r1059) (low serum, on MATRIGEL): 0.7835
- log intensity, ESTs (r1060) (low serum, on MATRIGEL): 1.175
- log intensity, ESTs (r1110) (low serum, on MATRIGEL): 0.533
- log intensity, ESTs (r1115) (low serum, on MATRIGEL): −1.164
- log intensity, ESTs, Highly similar to AF229172 1 class III myosin (low serum, on MATRIGEL): −0.4755
- log intensity, ESTs, Moderately similar to ALU4_HUMAN ALU SUBFAMILY SB2 (low serum, on MATRIGEL): −1.104
- log intensity, ESTs, Moderately similar to JC4969 pig-c protein (low serum, on MATRIGEL): −2.397
- log intensity, ESTs, Moderately similar to NFY-C (low serum, on MATRIGEL): −0.7494
- log intensity, ESTs, Weakly similar to A46302 PTB-associated splicing factor, long form (low serum, on MATRIGEL): 0.8941
- log intensity, ESTs, Weakly similar to ALU8_HUMAN ALU SUBFAMILY SX (low serum, on MATRIGEL): 2.766
- log intensity, ESTs, Weakly similar to ALUC_HUMAN (low serum, on MATRIGEL): 1.08
- log intensity, ESTs, Weakly similar to ALUF_HUMAN (low serum, on MATRIGEL): −1.032
- log intensity, ESTs, Weakly similar to KIAA1330 protein (low serum, on MATRIGEL): −0.9252
- log intensity, ESTs, Weakly similar to KIAA1399 protein (low serum, on MATRIGEL): −0.8312
- log intensity, ESTs, Weakly similar to T32252 hypothetical protein T15B7.2 (low serum, on MATRIGEL): 2.21
- log intensity, ESTs, Weakly similar to Z132_HUMAN ZINC FINGER PROTEIN 13 (low serum, on MATRIGEL): 1.049
- log intensity, F37Esophageal cancer-related gene-coding leucine-zipper motif (FEZ1) (low serum, on MATRIGEL): −0.1288
- log intensity, FLICE-like inhibitory protein short form (low serum, on MATRIGEL): 0.1358
- log intensity, GS1999full mRNA (low serum, on MATRIGEL): 0.137
- log intensity, H1 histone family, member X (H1FX) (low serum, on MATRIGEL): 3.217
